# Measured values from patent US20040121316A1 (priority 2002, published 2004).
# Read-outs that look alike come from different tables or passages of the source.
# Key:
# 84V90M HIV protease = 84V90M HIV protease (Human immunodeficiency virus type 1 group M subtype B, UniProt P04585, I572V/L578M); assay: biochemical; parameters: species or system HIV-1
# HIV-1 84V90M = assay: microbe, parasite or virus in culture; assay type: cell-based; details: Human immunodeficiency virus 1, read-out: Cell-based assay (MT-4) EC50/nM 84V90M
# HIV-1 48V54V82A = assay: microbe, parasite or virus in culture; assay type: cell-based
# HIV-1 46I50V = assay: microbe, parasite or virus in culture; assay type: cell-based
# HIV-1 30N82I88D = assay: microbe, parasite or virus in culture; assay type: cell-based
# WT HIV-1 [1] = assay: microbe, parasite or virus in culture; assay type: cell-based
# HIV-1 48V82A90M = assay: microbe, parasite or virus in culture; assay type: cell-based; details: MT-4, 48V82A90M; read-out: Cell-based assay (MT-4) EC50/nM 48V82A90M
# HIV-1 48V54V82S = assay: microbe, parasite or virus in culture; assay type: cell-based; details: MT-4, 48V54V82S; read-out: Cell-based assay (MT-4) EC50/nM 48V54V82S
# [2] = tested on: recombinant HIV-1 10I 48V 54V 82A; assay: microbe, parasite or virus in culture; assay type: cell-based
# [3] = tested on: recombinant HIV-1 10I 84V 71V 73S 90M; assay: microbe, parasite or virus in culture; assay type: cell-based
# [4] = tested on: recombinant HIV-1 30N 50S 82I 88D; assay: microbe, parasite or virus in culture; assay type: cell-based
# [5] = tested on: recombinant HIV-1 46I 47V 50V; assay: microbe, parasite or virus in culture; assay type: cell-based
# [6] = tested on: recombinant HIV-1 10I 48V 71V 82A 90M; assay: microbe, parasite or virus in culture; assay type: cell-based
# [7] = tested on: recombinant HIV-1 48V 54V 71V 82S; assay: microbe, parasite or virus in culture; assay type: cell-based
# WT HIV-1 [8] = assay: microbe, parasite or virus in culture; assay type: cell-based; details: Human immunodeficiency virus 1, MT4, read-out: Cell-based assay (MT-4) EC50/nM WT
# [9] = tested on: recombinant HIV-1 strains with resistance mutations in the protease gene; assay: Cross-Resistance Profile Assay, whole panel; assay type: cell-based; details: {}
# [10] = tested on: wild-type HIV-1 strain IIIB; assay: microbe, parasite or virus in culture; assay type: cell-based; details: Human immunodeficiency virus 1, IIIB
# [11] = Human immunodeficiency virus 1, read-out: Cell-based assay (MT-4) EC50/nM 48V54V82A
# [12] = Human immunodeficiency virus 1, read-out: Cell-based assay (MT-4) EC50/nM 46I50V
# [13] = Human immunodeficiency virus 1, read-out: Cell-based assay (MT-4) EC50/nM 30N82I88D
# [14] = Human immunodeficiency virus 1, read-out: Cell-based assay (MT-4) EC50/nM WT
# [15] = MT-4, 48V54V82A, read-out: Cell-based assay (MT-4) EC50/nM 48V54V82A
# [16] = MT-4, 46I50V, read-out: Cell-based assay (MT-4) EC50/nM 46I50V
# [17] = MT-4, 30N82I88D, read-out: Cell-based assay (MT-4) EC50/nM 30N82I88D
# [18] = read-out: Cell-based assay (MT-4) EC50/nM WT
Structure (SMILES),IC50 (84V90M HIV protease) [nM],EC50 (HIV-1 84V90M) [nM],EC50 (HIV-1 48V54V82A; [11]) [nM],EC50 (HIV-1 46I50V; [12]) [nM],EC50 (HIV-1 30N82I88D; [13]) [nM],EC50 (WT HIV-1 [1]; [14]) [nM],EC50 (HIV-1 48V54V82A; [15]) [nM],EC50 (HIV-1 46I50V; [16]) [nM],also measured
CCOP(=O)(COCCCN1C(=O)N(Cc2ccc3[nH]nc(N)c3c2)C(Cc2ccccc2)C(O)C(O)C1Cc1ccccc1)OCC (stereo not drawn) [OCH2PO3Et2],157,> 6000,175,138,145,356,,,
"CCOP(=O)(COc1ccc(CC2C(O)C(O)C(Cc3ccc(OC)cc3)N(Cc3ccc(O)cc3)C(=O)N2Cc2ccc(O)cc2)cc1)OCC (stereo not drawn) [OCH3, Ph-pOH, OCH2PO3Et2]",,,,,,,67,68,EC50 (HIV-1 48V82A90M): 48 nM; EC50 (HIV-1 48V54V82S): 106 nM; EC50 (HIV-1 30N82I88D; [17]): 23 nM; EC50 (WT HIV-1 [1]; [18]): 29 nM
"CCOP(=O)(COc1ccc(CC2C(O)C(O)C(Cc3ccc(OC)cc3)N(Cc3cccnc3)C(=O)N2Cc2cccnc2)cc1)OCC (stereo not drawn) [OCH3, m-pyridine, OCH2PO3Et2]",,,,,,,1020,352,EC50 (HIV-1 48V82A90M): 480 nM; EC50 (HIV-1 48V54V82S): 970 nM; EC50 (HIV-1 30N82I88D; [17]): 106 nM
CCOP(=O)(CCNC(=O)Oc1ccc(CC2C(O)C(O)C(Cc3ccc(OC)cc3)N(Cc3cccc(N)c3)C(=O)N2Cc2cccc(N)c2)cc1)OCC (stereo not drawn) [OCH3/Ph-mNH2/OCONH(CH2)2PO3Et2],,,,,,,,,"EC50 ([2]; MT-4 cells, strain printed as 48V 54V 82A, read-out: Cell-based assay (MT-4) EC50/nM 48V 54V 82A): 262 nM; EC50 ([3]; read-out: Cell-based assay (MT-4) EC50/nM 84V 90M, MT-4 cells, strain printed as 84V 90M): 2260 nM; EC50 ([4]; MT-4 cells, strain printed as 30N 82I 88D, read-out: Cell-based assay (MT-4) EC50/nM 30N 82I 88D): 77 nM; EC50 ([5]; MT-4 cells, strain printed as 47I50V, read-out: Cell-based assay (MT-4) EC50/nM 47I 50V): 184 nM; EC50 ([6]; read-out: Cell-based assay (MT-4) EC50/nM 48V 82A 90M, MT-4 cells, strain printed as 48V 82A 90M): 215 nM; EC50 ([7]; MT-4 cells, strain printed as 48V 54V 82S, read-out: Cell-based assay (MT-4) EC50/nM 48V 54V 82S): 214 nM"
CCOP(=O)(COc1ccc(CC2C(O)C(O)C(Cc3ccc(OC)cc3)N(Cc3ccc(O)cc3)C(=O)N2Cc2ccc(O)cc2)cc1)OCC (stereo not drawn) [OCH3/Ph-pOH/OCH2PO3Et2],,,,,,,,,"EC50 ([2]; Human immunodeficiency virus 1, MT4, read-out: Cell-based assay (MT-4) EC50/nM 48V 54V 82A): 70 nM; EC50 ([3]; Human immunodeficiency virus 1, MT4, read-out: Cell-based assay (MT-4) EC50/nM 84V 90M): 148 nM; EC50 (WT HIV-1 [8]): 30 nM; EC50 ([4]; Human immunodeficiency virus 1, MT4, read-out: Cell-based assay (MT-4) EC50/nM 30N 82I 88D): 25 nM; EC50 ([5]; Human immunodeficiency virus 1, MT4, read-out: Cell-based assay (MT-4) EC50/nM 47I 50V): 90 nM; EC50 ([6]; Human immunodeficiency virus 1, MT4, read-out: Cell-based assay (MT-4) EC50/nM 48V 82A 90M): 54 nM; EC50 ([7]; Human immunodeficiency virus 1, MT4, read-out: Cell-based assay (MT-4) EC50/nM 48V 54V 82S): 129 nM"
"CCOP(=O)(COc1ccc(CC2C(O)C(O)C(Cc3ccc(O)cc3)N(Cc3ccc(O)cc3)C(=O)N2Cc2ccc(O)cc2)cc1)OCC (stereo not drawn) [OH, Ph-pOH, OCH2PO3Et2]",18,1910,986,1110,211,285,,,
"CC(C)c1nc(CN(C)C(=O)N[C@H](C(=O)N[C@@H](Cc2ccccc2)C[C@H](O)[C@H](Cc2ccccc2)NC(=O)OCc2cncs2)C(C)C)cs1 [Ritonavir, reference compound]",,,,,,,,,Total No. of Resistant Viruses [9]: 10; EC50 [10]: < 50 nM
"CC(C)(C)NC(=O)[C@@H]1C[C@@H]2CCCC[C@@H]2CN1C[C@@H](O)[C@H](Cc1ccccc1)NC(=O)[C@H](CC(N)=O)NC(=O)c1ccc2ccccc2n1 [Saquinavir, reference compound]",,,,,,,,,Total No. of Resistant Viruses [9]: 4; EC50 [10]: < 50 nM
CCOP(=O)(CCCNC(=O)c1cccc(CN2C(=O)N(Cc3ccc4[nH]nc(N)c4c3)C(Cc3ccccc3)C(O)C(O)C2Cc2ccccc2)c1)OCC (stereo not drawn) [drawing 809],10,476,240,319,666,188,,,
Nc1n[nH]c2ccc(CN3C(=O)N(Cc4cccc(OCc5ccccc5)c4)C(Cc4ccccc4)C(O)C(O)C3Cc3ccccc3)cc12 (stereo not drawn) [m-OBn],,,,,,,709,601,EC50 (WT HIV-1 [1]; [18]): 218 nM
Nc1n[nH]c2ccc(CN3C(=O)N(Cc4ccc(O)cc4)C(Cc4ccccc4)C(O)C(O)C3Cc3ccccc3)cc12 (stereo not drawn) [p-OH],,,,,,,32,55,EC50 (HIV-1 48V82A90M): 19 nM; EC50 (HIV-1 48V54V82S): 39 nM; EC50 (HIV-1 30N82I88D; [17]): 79 nM
O=C1N(Cc2ccccc2)[C@H](Cc2ccccc2)[C@H](O)[C@@H](O)[C@@H](Cc2ccccc2)N1Cc1ccc2[nH]ncc2c1 [reference compound],43.3,2310,705,772,281,193,,,
